Data published in patent US11458146B2, “Compositions and methods for the treatment of myelin related and inflammation related diseases or disorders” (Duke University, priority 2017, dated 2022).
Entries after “also recorded” stand apart in the source; their conditions may differ.

Columns and labels:
[1] = target: smoothened (SMO) (Homo sapiens, UniProt Q99835); details: fibroblast cell culture systems; recent studies; cited from earlier work
[2] = tested on: Primary neural stem cells; test: oligodendrocyte differentiation from neural stem cells, western blot for CNPase and MBP; assay type: cell-based; details: 1 μm and 0.5 μm for five days, then differentiation for 18 days
Protocol: FIG. 5 is a western blot analysis. Stem cells were treated with oxysterols at doses indicated for 5 days then allowed to differentiate for 18 days. Protein lysates were probed for oligodendrocyte-associated proteins CNPase and myelin basic protein (MBP). Primary neural stem cells were treated with 24-hydroxycholesterol and 25-hydroxycholesterol at 1 μm and 0.5 μm for five days, then allowed to differentiate for 18 days. Protein lysates were probed for oligodendrocyte-associated proteins CNPase and myelin basic protein (MBP).

[3] = tested on: naïve CD4+ T cells; test: TH17 polarization of naïve CD4+ T cells in vitro (flow cytometry, IL-17 production); assay type: cell-based, rodent; details: for cells polarized into the TH17 population: control cells 7.8%; for TH17 polarization (in words, FIG. 8): flow cytometry
Protocol: Naïve CD4 T cells were isolated from rodent spleen tissue using CD4 magnetic beads. CD4+ lymphocytes were cultured on plates coated with anti-CD3 antibody and anti-CD28 antibodies in the presence of rTGFb, rIL-6, and rIL-23 for 5 days. Four hours prior to flow cytometry analysis, the cells were stimulated with PMA, ionomycin, and Brefeldin A. The cells were then analyzed for IL-17 production (FIG. 8, wherein CD4+ T cell culture in the presence of CD3/CD28-coated beads with IMDM media containing rTGFβ (4 ng/ml), rIL-6 (20 ng/ml), rIL-23 (50 ng/ml), anti-IL-4 Ab, and anti-IFNg Ab with or without GW or HC for 5 days. PMA (50 ng/ml), Ionomycin (500 ng/ml) for […], and Brefeldin A (10 μg/ml) for last 3 h)). 7.8% of the control cells polarized into the TH17 population. The LXR agonist GW3965 prevented TH17 polarization (2.6%).

[4] = tested on: Primary neural stem cells; test: in vitro screening method for oligodendrogenesis (CNPase+ cell count); assay type: cell-based, mice; details: exposed five days, differentiated 15-18 days; compared to media control
Source text: Primary neural stem cells generated from mice were screened for oligodendrogenic potential after treatment with 20HC, 22HC, 24HC, 25HC, and 27HC. Neural stem cells in 8-well chamber slides were exposed to the indicated oxysterol for five days, and then allowed to differentiate for 15-18 days. Following differentiation, cells were fixed and stained for oligodendrocyte markers CNPase and myelin basic protein (MBP) (FIG. 6A). Stained cells were randomly sampled with a 40× objective, using Stereo Investigator software to eliminate bias, while quantifying the number of oligodendrocytes. Each condition was sampled at 10-12 computer selected sites. Images were used to count the number of nucleated CNPase+ cells per high power field (HPF).

[5] = tested on: EAE induced with MOG35-55 peptide in C57BL/6J mice; test: experimental allergic encephalitis (EAE) mouse model; assay type: in vivo
Protocol: EAE was induced using myelin oligodendrocyte glycoprotein (MOG35-55) peptide using standard approaches (see, e.g., Bittner et al., J. Vis. Exp., 86: 51275 (2014); and Miller et al., Curr Protoc Immunol., Unit-15.1 (2007)) in 15 wild-type 8 week old C57BL/6J mice. TH17 T cell populations are pathogenic in the EAE model and have been implicated in multiple sclerosis (MS). Seven mice (3 male, 4 female) proceeded without further intervention while 8 mice (3 female and 5 male) were given daily 125 μL subcutaneous injections of 20HC resuspended in corn oil (10 mg/mL) two days prior to EAE induction and through day 14, just prior to peak clinical severity. Mice were scored daily for the development of ascending paralysis that is indicative of the development of EAE. In vivo treatment of mice with 20HC (50 mg/kg/day) disrupted the development of MS-like symptoms in the EAE model, as shown in FIGS. 9A and 9B.

[6] = tested on: NF-κB; test: NF-κB activation in LPS-treated primary splenic monocytes (western blot); assay type: cell-based, mice; details: 1 μm 20HC for 24 hours, then 500 ng/mL LPS
Protocol: FIG. 7 is a Western blot showing the 20HC inhibition of NFκB pathway in primary splenic monocytes. Primary monocytes were exposed to media, 20HC (24 hour)+LPS (500 ng/ml), or LPS alone for 4 hours. 20HC prevented IκB degradation and p65 phosphorylation in LPS treated cells.
Splenocytes where harvested from postnatal day 12 mice. Monocytes were negatively selected using anti-CD3, CD19 magnetic beads. Cells were treated with vehicle control (DMSO) or 1 μm 20HC for 24 hours. After exposure to 20HC, monocytes were treated with 500 ng/mL of lipopolysaccharide (LPS) to activate the TLR4 receptor and activate NF-κB. Compared to control cells, LPS-treated cells degraded I-κB and phosphorylated p65 consistent with NF-κB activation (FIG. 7). I-κB degradation and phosphorylation of p65 was blocked in 20HC-treated monocytes.

[7] = tested on: perinatal white matter injury in neonatal mice; test: mouse model of perinatal white matter injury (simulated bowel perforation and sepsis); assay type: in vivo
Protocol: Perinatal bowel perforation is a common complication of premature birth and is strongly linked to myelin injury and cerebral palsy. A mouse model of perinatal white matter injury was developed. The model simulates a perinatal bowel perforation and sepsis by injection of donor cecal contents into the peritoneal cavity of neonatal mice on postnatal day 5. Using this model, the efficacy of 25-hydroxycholesterol in reversing white matter injury was tested. […] Breast-milk associated 25-HC reversed diffuse white matter injury. The cells were stained with oligodendrocyte marker CC1. 40× high power fields (PHF) were imaged.

Sequence of smoothened (SMO) (Q99835 28-787): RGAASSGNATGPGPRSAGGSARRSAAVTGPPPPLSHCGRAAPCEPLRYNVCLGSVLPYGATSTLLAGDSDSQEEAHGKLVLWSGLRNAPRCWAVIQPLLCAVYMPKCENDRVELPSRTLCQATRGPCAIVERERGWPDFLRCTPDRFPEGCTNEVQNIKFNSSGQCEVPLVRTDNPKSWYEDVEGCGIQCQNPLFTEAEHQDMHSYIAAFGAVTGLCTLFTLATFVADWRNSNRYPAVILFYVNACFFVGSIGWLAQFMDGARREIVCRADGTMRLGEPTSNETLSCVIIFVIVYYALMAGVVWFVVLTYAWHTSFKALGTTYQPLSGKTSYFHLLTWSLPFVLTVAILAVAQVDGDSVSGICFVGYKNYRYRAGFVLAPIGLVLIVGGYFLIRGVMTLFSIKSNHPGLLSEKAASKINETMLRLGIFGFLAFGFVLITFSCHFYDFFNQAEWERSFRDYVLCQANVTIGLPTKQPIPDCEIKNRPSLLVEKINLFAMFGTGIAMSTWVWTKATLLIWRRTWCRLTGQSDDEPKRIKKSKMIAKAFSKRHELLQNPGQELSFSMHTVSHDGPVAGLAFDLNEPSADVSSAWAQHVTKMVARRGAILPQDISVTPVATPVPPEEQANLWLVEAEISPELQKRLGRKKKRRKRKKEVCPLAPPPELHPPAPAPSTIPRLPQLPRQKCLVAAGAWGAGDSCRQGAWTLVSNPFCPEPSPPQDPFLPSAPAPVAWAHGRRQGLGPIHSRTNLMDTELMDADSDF

CC(C)CC[C@@H](O)[C@@H](C)[C@H]1CC[C@H]2[C@@H]3CC=C4C[C@@H](O)CC[C@]4(C)[C@H]3CC[C@]12C [22α-hydroxycholesterol]
activation of the SHH pathway via direct binding to smoothened (SMO) [1]: activate

CC(C)C(O)CC[C@@H](C)[C@H]1CC[C@H]2[C@@H]3CC=C4C[C@@H](O)CC[C@]4(C)[C@H]3CC[C@]12C (stereo partly drawn) [24HC, 24-hydroxycholesterol]
expression of oligodendrocyte-associated proteins CNPase and MBP [2]: induced expression | cells polarized into the TH17 population ([3]; 5 days culture): 2.1% | TH17 polarization (in words, FIG. 8) [3]: decrease | number of oligodendrocytes (nucleated CNPase+ cells per high power field) [4]: increased number

C[C@@H](CO)CCC[C@@H](C)[C@H]1CC[C@H]2[C@@H]3CC=C4C[C@@H](O)CC[C@]4(C)[C@H]3CC[C@]12C [27HC, 27-hydroxycholesterol]
number of oligodendrocytes (nucleated CNPase+ cells per high power field) [4]: did not increase

CC(C)CCC[C@](C)(O)[C@H]1CC[C@H]2[C@@H]3CC=C4C[C@@H](O)CC[C@]4(C)[C@H]3CC[C@@]21C [20HC, 20α-Hydroxycholesterol]
development of MS-like symptoms ([5]; 50 mg/kg/day subcutaneous, from two days prior to EAE induction through day 14): disrupted | EAE clinical score ([5]; compared to control mice over 46 days, p≤0.05): attenuation | I-κB degradation [6]: blocked; also recorded: prevented | phosphorylation of p65 [6]: blocked; also recorded: prevented | activation of the SHH pathway via direct binding to smoothened (SMO) [1]: activate | cells polarized into the TH17 population ([3]; 5 days culture): 2.2% | TH17 polarization (in words, FIG. 8) [3]: decrease | number of oligodendrocytes (nucleated CNPase+ cells per high power field) [4]: increased number

CC(C)CCC(O)[C@@H](C)[C@H]1CC[C@H]2[C@@H]3CC=C4C[C@@H](O)CC[C@]4(C)[C@H]3CC[C@]12C (stereo partly drawn) [22HC, 22-hydroxycholesterol]
number of oligodendrocytes (nucleated CNPase+ cells per high power field) [4]: increased number

C[C@H](CCCC(C)(C)O)[C@H]1CC[C@H]2[C@@H]3CC=C4C[C@@H](O)CC[C@]4(C)[C@H]3CC[C@]12C [25HC, 25-hydroxycholesterol]
expression of oligodendrocyte-associated proteins CNPase and MBP [2]: induced expression | cells polarized into the TH17 population ([3]; higher doses): 2.7% | cells polarized into the TH17 population ([3]; low doses): 23.6% | TH17 polarization (in words, FIG. 8) ([3]; low doses): promote | number of oligodendrocytes (nucleated CNPase+ cells per high power field) [4]: increased number | myelin integrity (fluoromyelin staining) ([7]; 100 mg/kg/day for five days, compared to septic injured mice that received vehicle control): improved myelin integrity | diffuse white matter injury ([7]; septic injured neonatal mice): reversed | numbers of mature oligodendrocytes (CC1+Olig2+) ([7]; stereology, compared to septic injured mice, p<0.0001): significantly higher

O=C(O)Cc1cccc(OCCCN(Cc2cccc(C(F)(F)F)c2Cl)CC(c2ccccc2)c2ccccc2)c1 [GW3965, reference compound]
cells polarized into the TH17 population ([3]; 5 days culture): 2.6%
